From the NIST ThermoML archive (doi:10.1016/j.fluid.2017.01.019)

Experiment: xn = mol fraction of the nth substance listed
Conditions: 100 kPa, Liquid; for viscosity: Falling or rolling sphere viscometry; for speed of sound: Frequency=3 MHz, Sing-around technique in a fixed-path interferometer; for mass density: Vibrating tube method

CCOS(=O)(=O)[O-].CCn1cc[n+](C)c1 [1-ethyl-3-methylimidazolium ethyl sulfate] + CCCCO
Conditions	mass density, 313.15 K [kg/m3]	mass density, 318.15 K [kg/m3]	mass density, 323.15 K [kg/m3]	speed of sound, 313.15 K [m/s]	speed of sound, 318.15 K [m/s]	speed of sound, 323.15 K [m/s]	viscosity, 313.15 K [mPa·s]	viscosity, 318.15 K [mPa·s]	viscosity, 323.15 K [mPa·s]
x1 = 0.1071	883.165	879.331	875.482	1243.2	1228	1213	2.99	2.69	2.43
x1 = 0.1982	944.157	940.543	936.794	1290.7	1276.5	1262.2	4.82	4.25	3.69
x1 = 0.3069	1004.86	1001.31	997.633	1344.1	1330.5	1317	6.95	6.16	5.43
x1 = 0.3985	1048.25	1044.72	1041.07	1390.4	1377.6	1364.8	9.21	8.16	7.28
x1 = 0.5048	1091.49	1088.01	1084.47	1441.8	1429.8	1417.4	12.62	11.12	9.93
x1 = 0.603	1125.39	1122.45	1118.96	1485.8	1473.7	1461.5	16.74	14.62	12.97
x1 = 0.7158	1160.05	1156.71	1153.24	1534.5	1522.6	1510.6	22.92	19.75	17.27
x1 = 0.7951	1181.13	1177.81	1174.37	1566.7	1554.8	1543	28.36	24.19	20.87
x1 = 0.9185	1209.91	1206.65	1203.18	1613.1	1601.2	1589.4	38.93	32.66	27.56
x1 = 1	1226.21	1222.87	1219.54	1645.9	1634.1	1622.3	49.38	40.93	33.82
